ChEMBL document CHEMBL3217668, “3-Formylchromone based topoisomerase II inhibitors: discovery of potent leads” (Medchemcomm, 2013)
Activity calls are given as the source filed them. The calls are words filed in the database; no cut-off is given here.

How the values were obtained:
[1] = tested on: Nucleic Acid; experiment: Binding affinity to Escherichia coli plasmid DNA assessed as intercalation at 1 ug/mL after 20 mins by agarose gel electrophoresis; assay type: nucleic-acid assay
[2] = tested on: PC-3; experiment: Cytotoxicity against human PC3 cells assessed as cell survival after 48 hrs by MTT assay; assay type: functional; details: PC-3, 48 h, read-out: LC50 (the source's name)
[3] = tested on: Nucleic Acid; experiment: Binding affinity to Escherichia coli plasmid DNA assessed as intercalation at 100 uM after 20 mins by agarose gel electrophoresis; assay type: nucleic-acid assay
[4] = biological target: T1, DNA topoisomerase 2-alpha (Homo sapiens, UniProt P11388); experiment: Inhibition of human topoisomerase-2alpha-mediated supercoiled pRYG DNA relaxation at 100 uM after 30 mins by agarose gel electrophoresis
T1 sequence (P11388 whole entry): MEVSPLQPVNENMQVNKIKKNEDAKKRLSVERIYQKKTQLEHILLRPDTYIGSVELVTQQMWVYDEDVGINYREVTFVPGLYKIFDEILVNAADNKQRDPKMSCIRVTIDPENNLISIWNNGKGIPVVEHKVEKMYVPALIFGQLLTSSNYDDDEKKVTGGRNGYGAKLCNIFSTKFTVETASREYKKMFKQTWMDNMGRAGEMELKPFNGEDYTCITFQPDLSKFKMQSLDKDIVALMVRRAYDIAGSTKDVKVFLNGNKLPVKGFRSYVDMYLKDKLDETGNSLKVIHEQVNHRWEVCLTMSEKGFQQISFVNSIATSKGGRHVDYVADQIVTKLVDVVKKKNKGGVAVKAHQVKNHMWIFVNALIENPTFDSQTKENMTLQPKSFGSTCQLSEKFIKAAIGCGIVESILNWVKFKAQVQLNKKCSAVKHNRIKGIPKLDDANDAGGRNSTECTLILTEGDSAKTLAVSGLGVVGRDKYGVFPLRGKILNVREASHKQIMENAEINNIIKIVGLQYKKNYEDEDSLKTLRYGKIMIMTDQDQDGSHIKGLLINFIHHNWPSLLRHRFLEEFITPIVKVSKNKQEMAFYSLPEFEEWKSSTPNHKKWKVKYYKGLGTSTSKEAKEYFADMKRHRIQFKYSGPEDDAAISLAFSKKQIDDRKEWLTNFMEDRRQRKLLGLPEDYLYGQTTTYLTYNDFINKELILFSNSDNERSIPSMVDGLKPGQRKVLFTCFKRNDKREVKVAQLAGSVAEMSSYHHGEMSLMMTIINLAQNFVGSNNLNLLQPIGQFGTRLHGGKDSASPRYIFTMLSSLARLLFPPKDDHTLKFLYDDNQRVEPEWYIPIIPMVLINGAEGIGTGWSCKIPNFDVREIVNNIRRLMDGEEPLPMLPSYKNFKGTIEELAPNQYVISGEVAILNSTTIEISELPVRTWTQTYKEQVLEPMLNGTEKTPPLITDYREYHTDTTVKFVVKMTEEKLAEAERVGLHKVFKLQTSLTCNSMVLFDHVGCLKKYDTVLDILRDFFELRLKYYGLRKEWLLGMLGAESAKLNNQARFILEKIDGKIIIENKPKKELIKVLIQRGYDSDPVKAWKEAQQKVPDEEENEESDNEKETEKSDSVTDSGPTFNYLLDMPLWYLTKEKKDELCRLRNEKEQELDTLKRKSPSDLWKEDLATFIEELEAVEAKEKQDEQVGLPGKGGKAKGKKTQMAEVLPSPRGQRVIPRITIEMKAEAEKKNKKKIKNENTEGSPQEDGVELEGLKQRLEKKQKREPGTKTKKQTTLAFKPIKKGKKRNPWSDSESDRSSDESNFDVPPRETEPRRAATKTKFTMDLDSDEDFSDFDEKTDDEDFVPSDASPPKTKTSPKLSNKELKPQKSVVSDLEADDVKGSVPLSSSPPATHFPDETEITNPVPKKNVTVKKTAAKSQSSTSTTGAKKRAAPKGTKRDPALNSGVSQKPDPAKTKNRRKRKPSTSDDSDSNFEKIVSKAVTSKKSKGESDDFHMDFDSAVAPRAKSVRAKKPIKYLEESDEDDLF

[5] = biological target: T1, DNA topoisomerase 2-alpha; experiment: Inhibition of human topoisomerase-2alpha-mediated kDNA decatenation at 100 uM after 30 mins by agarose gel electrophoresis
[6] = biological target: T1, DNA topoisomerase 2-alpha; experiment: Inhibition of human topoisomerase-2alpha-mediated kDNA decatenation after 30 mins by agarose gel electrophoresis

CC[n+]1c(-c2ccccc2)c2cc(N)ccc2c2ccc(N)cc21
Activity [1]: Active

O=Cc1coc2ccc(Cl)cc2c1=O
CC50 [2]: 5.7 µM | Activity [3]: inactive | inhibition [4]: Active | inhibition [5]: Active

O=Cc1c(Nc2ccccc2)oc2ccc(F)cc2c1=O
CC50 [2]: 8.6 µM | Activity [3]: inactive | inhibition [4]: Active | inhibition [5]: Active

O=Cc1c(Nc2ccccc2)oc2ccccc2c1=O
CC50 [2]: 8.2 µM | Activity [3]: inactive | inhibition [4]: Active | inhibition [5]: Active

CN(c1ccccc1)c1oc2ccccc2c(=O)c1C=O
IC50 [6]: 67.9 µM | CC50 [2]: 0.5 µM | Activity [3]: inactive | inhibition [4]: Active

O=Cc1c(Nc2ccccc2)oc2ccc(Cl)cc2c1=O
CC50 [2]: 8.3 µM | Activity [3]: inactive | inhibition [4]: Active | inhibition [5]: Active

CN(c1ccccc1)c1oc2ccc(Cl)cc2c(=O)c1C=O
CC50 [2]: 2.1 µM | Activity [3]: inactive | inhibition [4]: Active | inhibition [5]: Active

O=Cc1c(Nc2ccccc2)oc2cc(Cl)ccc2c1=O
CC50 [2]: 2.5 µM | Activity [3]: inactive | inhibition [4]: Active | inhibition [5]: Active

COc1cc([C@@H]2c3cc4c(cc3[C@@H](O[C@@H]3O[C@@H]5CO[C@@H](C)O[C@H]5[C@H](O)[C@H]3O)[C@H]3COC(=O)[C@H]23)OCO4)cc(OC)c1O [ETOPOSIDE]
CC50 [2]: 7.5 µM | Activity [3]: inactive | inhibition [4]: Active | inhibition [5]: Active
